System in one data set: not given
Assay: not given
Settings: not given
The term melting point denotes the temperature of the solid-liquid transition. `Cn1ncc2c1-c1c(Nc3ccccc3)sc(C(N)=O)c1CC2` [Example 28, 4,5-Dihydro-1-methyl-8-phenylamino-1H-thieno[3,4-g]indazole-6-carboxamide] showed a melting point of 140 to 141 °C. In the case of `O=C(O)c1sc(Nc2ccc(Cl)cc2)c2c1CCc1cnoc1-2` [Example 12, 8-(4-Chlorophenylamino)-4,5-dihydrothieno[3,4-g]-1,2-benzisoxazole-6-carboxylic Acid], the melting point was 232 to 233 °C (dec.). Take `Cn1cc2c(n1)-c1c(Oc3ccc(C=O)cc3)sc(C(N)=O)c1CC2` [Example 380, 8-(4-Formylphenoxy)-4,5-dihydro-2-methyl-2H-thieno[3,4-g]indazole-6-carboxamide]: the melting point was 210 to 211 °C. Same read-out and setting: in the case of `Cn1ncc2c1-c1c(csc1S(C)(=O)=O)CC2` [Example 490, 1-Methyl-8-methylsulfonyl-4,5-dihydro-1H-thieno[3,4-g]indazole] it was 192 to 193 °C.

The compound `Cn1cc2c(n1)-c1c(N(C(=O)OCc3ccccc3)c3ccccc3)sc(C(N)=O)c1CC2` [Example 22, 8-[(N-Benzyloxycarbonyl-N-phenyl)amino]-4,5-dihydro-2-methyl-2H-thieno[3,4-g]indazole-6-carboxamide] came in with a melting point of 220 to 221 °C. As to `CCOC(=O)c1sc(C)c2c1CCc1cnn(Cc3ccccc3)c1-2` [Example 128, 1-Benzyl-4,5-dihydro-8-methyl-1H-thieno[3,4-g]indazole-6-carboxylic Acid Ethyl Ester], the melting point lay within 131 to 132 °C. Take `NC(=O)c1sc(N(C(=O)OCc2ccccc2)c2ccccc2)c2c1CCc1c[nH]nc1-2` [Example 21, 8-[(N-Benzyloxycarbonyl-N-phenyl)amino]-4,5-dihydro-1H-thieno[3,4-g]indazole-6-carboxamide]: the melting point lay in the range of 240 to 241 °C.

For `O=C(O)c1sc(Nc2ccccc2)c2c1CCc1cnoc1-2` [Example 13, 4,5-Dihydro-8-phenylaminothieno[3,4-g]-1,2-benzisoxazole-6-carboxylic Acid], the melting point was 211 to 212 °C (dec.).

Regarding `CCOC(=O)N1C2=C(CCc3csc(Oc4ccccc4)c32)CN1C` [Example 143, 4,5-dihydro-2-methyl-8-phenoxy-2H-thieno[3,4-g]indazole-1-carboxylic Acid Ethyl Ester], the melting point was 89 to 90 °C. As to `CCOC(=O)c1sc(C)c2c1CCc1cnn(C)c1-2` [Example 73, 4,5-Dihydro-1,8-dimethyl-1H-thieno[3,4-g]indazole-6-carboxylic Acid Ethyl Ester], the melting point lay within 118 to 119 °C. In turn, `CNC(=O)c1sc(Nc2ccccc2)c2c1CCc1cnoc1-2` [Example 33, N-Methyl-4,5-dihydro-8-(phenylamino)thieno[3,4-g]-1,2-benzisoxazole-6-carboxamide] came in with a melting point of 193 to 194 °C. In the case of `CC(C)(C)OC(=O)c1sc(Nc2ccc(Cl)cc2)c2c1CCc1cnoc1-2` [Example 3, 8-(4-Chlorophenylamino)-4,5-dihydrothieno[3,4-g]-1,2-benzisoxazole-6-carboxylic Acid t-butyl Ester], the melting point lay in the range of 197 to 198 °C.

As to `O=C(O)c1sc(N(C(=O)OCc2ccccc2)c2ccccc2)c2c1CCc1c[nH]nc1-2` [Example 14, 8-[(N-Benzyloxycarbonyl-N-phenyl)amino]-4,5-dihydro-1H-thieno[3,4-g]indazole-6-carboxylic Acid], the melting point lay within 278 to 279 °C. On the same count and under the same terms, under `CCOC(=O)c1sc(OC)c2c1CCc1cnn(C)c1-2` [Example 263] stands 82 to 84 °C; under `CCOC(=O)c1sc(C)c2c1CCc1cnn(CC(F)(F)F)c1-2` [Example 127, 4,5-Dihydro-8-methyl-1-(2,2,2-trifluoroethyl)-1H-thieno[3,4-g]indazole-6-carboxylic Acid Ethyl Ester], 120 to 121 °C. `CC(C)(C)OC(=O)c1sc(Nc2ccccc2)c2c1CCc1cnoc1-2` [Example 4, 4,5-Dihydro-8-phenylaminothieno[3,4-g]-1,2-benzisoxazole-6-carboxylic Acid t-butyl Ester] showed a melting point of 148 to 149 °C. Still for that read-out and setting: under `COc1sc(C(N)=O)c2c1-c1c(cnn1C)CC2` [Example 279] stands 154 to 156 °C; under `CN(C(=O)c1ccccc1)c1sc(C(N)=O)c2c1-c1oncc1CC2` [Example 18, 8-[(N-Benzoyl-N-methyl)amino]-4,5-dihydrothieno[3,4-g]-1,2-benzisoxazole-6-carboxamide], 197 to 198 °C; under `NC(=O)c1sc(Nc2ccccc2)c2c1CCc1cn[nH]c1-2` [Example 29, 4,5-Dihydro-8-phenylamino-1H-thieno[3,4-g]indazole-6-carboxamide], 233 to 234 °C. Same read-out and setting: in the case of `CCCCc1sc(C(=O)OCC)c2c1-c1c(cnn1C)CC2` [Example 78, 8-n-Butyl-4,5-dihydro-1-methyl-1H-thieno[3,4-g]indazole-6-carboxylic Acid Ethyl Ester] it was 80 to 81 °C; in that of `NC(=O)c1sc(Nc2ccc(Cl)cc2)c2c1CCc1cnoc1-2` [Example 19, 8-(4-Chlorophenylamino)-4,5-dihydrothieno[3,4-g]-1,2-benzisoxazole-6-carboxamide], 224 to 225 °C. For `COc1sc(C(=O)O)c2c1-c1c(cnn1C)CC2` [Example 271], the melting point fell in the range of 250 to 252 °C. For the compound `CN(C(=O)c1ccccc1)c1sc(C(=O)O)c2c1-c1oncc1CC2` [Example 11, 8-[(N-Benzoyl-N-methyl)amino]-4,5-dihydrothieno[3,4-g]-1,2-benzisoxazole-6-carboxylic Acid], the melting point was 232 to 233 °C (dec.). Still for that read-out and setting: in the case of `CC(C)OP(=O)(/C=C/c1ccc(Oc2sc(C(N)=O)c3c2-c2nn(C)cc2CC3)cc1)OC(C)C` [Example 380, 8-{4-((E)-2-diisopropoxyphosphorylvinyl)phenoxy}-4,5-dihydro-2-methyl-2H-thieno[3,4-g]indazole-6-carboxamide] it was 216 to 217 °C.

The test system of a further data set is interstitial cells prepared from the bone marrow of the femur of normal rats. As to the kind of experiment: Action to promote osteogenesis: alkaline phosphatase activity in bone marrow interstitial cells. The data set is classed as cell-based, Sprague-Dawley rats. Set-up: dose or concentration left out as unconfirmed. The following applies: rat bone marrow interstitial cells, compound added from day 2 for 5 days; mean ± S.E. (n = 4); all **p<0.01 vs. control. The protocol:
Action to Promote Osteogenesis:
The action was determined in interstitial cells prepared from the bone marrow of the femur of normal rats by using alkaline phosphatase activity as the measure for osteogenesis. In other words, interstitial cells were prepared from the bone marrow of the femur of 7-week old male Sprague-Dawley rats according to the method of Maniatopoulos et al. [Cell Tissue Research, vol. 254, p. 317 (1988)], and cultivated in α-MEM (minimum essential medium) containing dexamethasone (10^−7 M) and β-glycerophosphoric acid (10^−2 M) to facilitate formation of the calcified osteoid tissue. After one week, the primary culture cells that reached the confluence were recovered by treating with a solution containing 0.25% trypsin and 0.2% EDTA and were subcultured in culture plates at a cell density of […] (day 0 of the cultivation). […] After the cells were washed with a phosphate buffer solution, 0.2% Nonidet P-40 was added to the cells, which were homogenized and centrifuged at 3000 rpm for 10 minutes, and the supernatant was subjected to the determination of alkaline phosphatase activity according to the method of Lowry et al. [Journal of Biological Chemistry, vol. 207, p. 19 (1954)]. Student's t-test was used for the statistical treatment.
As for `CCCS(=O)(=O)c1sc(C(N)=O)c2c1-c1c(cnn1C)CC2` [Example 70, 4,5-Dihydro-1-methyl-8-n-propylsulfonyl-1H-thieno[3,4-g]indazole-6-carboxamide], the “Alkaline phosphatase activity (A405)” value is 0.25 ± 0.02**.

With `CC(=O)c1sc(Oc2ccc3c(c2)OCO3)c2c1CCc1cnn(C)c1-2` [Example 251, 1-[4,5-Dihydro-8-(3,4-methylenedioxyphenoxy)-1-methyl-1H-thieno[3,4-g]indazol-6-yl]-1-ethanone], the “Alkaline phosphatase activity (A405)” value is recorded as 1.33 ± 0.13**. The same measure, in the same setting: in the case of `CCNC(=O)c1sc(Oc2ccc3c(c2)OCO3)c2c1CCc1cnn(C)c1-2` [Example 255, N-ethyl-4,5-dihydro-8-(3,4-methylenedioxyphenoxy)-1-methyl-1H-thieno[3,4-g]indazole-6-carboxamide] it was 1.82 ± 0.06**.

In another data set the test system is Chondromodulin-I (ChM-I) mRNA. As to the kind of experiment: Assay of Chondromodulin-I (ChM-I) mRNA by RT-PCR in ATDC5 cells. The following applies: 10^−6 M test compound; ATDC5 cells cultured 7 days; density of ChM-I band determined by bioimaging; no test compound added = 0. The data set is classed as cell-based, mouse. Here is the method:
Assay of Chondromodulin-I (ChM-I) mRNA:
ATDC5, a substrain derived from mouse teratocarcinoma cell line AT805, was used. ATDC5 cells were cultured at 37° C. for 7 days in the presence of the test compound using a 1:1 mixed medium of Dulbecco's modified Eagle's medium/Ham's F-12 medium containing 5% heat-inactivated fetal bovine serum and 20 μg/ml gentamycin under a condition of 5% carbon dioxide and 95% air. After the cultivation was completed, cells were collected, from which RNA was recovered by using an RNeasy mini kit (manufactured by Quiagen Company), followed by DNAase treatment using MessageClean Kit (manufactured by Genhunter Company) to obtain the total RNA. The amount of ChM-I mRNA in the total RNA was determined by the RT-PCR method. First, cDNA was synthesized from the RNA preparation by reverse transcription reaction using TaKaRa PCR Kit (AMV) ver. 2.1 and random 9-mers (manufactured by Takara Shuzo Co., Ltd.) according to the instruction for the kit. Next, ChM-I gene was amplified specifically by using HotStarTaq DNA polymerase (manufactured by Quiagen company). The following primers were used for the amplification of ChM-I gene: […]
The amplification reaction was carried out in a GeneAmp PCR System 2400 (manufactured by Perkin Elmer Inc.) after warming at 95° C. for 15 minutes, which was followed by 32 repeating reaction cycles of 95° C. for 20 seconds, 58° C. for 10 seconds and 72° C. for 30 seconds. The thus-obtained PCR product was separated by electrophoresis on 2% agarose gel containing ethidium bromide, and the fluorescence intensity of the DNA fragment, which appeared by ultraviolet irradiation at the location corresponding the size (212 bp) expected from the base sequence of mouse ChM-I, was determined. The activity of the test compound to enhance ChM-I expression is expressed as the density of ChM-I band as determined by bioimaging (Table 49). […]
For the compound `CCCS(=O)(=O)c1sc(C(N)=O)c2c1-c1c(cnn1C)CC2` [Example 70, 4,5-Dihydro-1-methyl-8-n-propylsulfonyl-1H-thieno[3,4-g]indazole-6-carboxamide], the ChM-I expression-enhancing activity worked out at 47. Turning to `CC(=O)c1sc(Oc2ccc3c(c2)OCO3)c2c1CCc1cnn(C)c1-2` [Example 251, 1-[4,5-Dihydro-8-(3,4-methylenedioxyphenoxy)-1-methyl-1H-thieno[3,4-g]indazol-6-yl]-1-ethanone], the ChM-I expression-enhancing activity is 87. Regarding `CCNC(=O)c1sc(Oc2ccc3c(c2)OCO3)c2c1CCc1cnn(C)c1-2` [Example 255, N-ethyl-4,5-dihydro-8-(3,4-methylenedioxyphenoxy)-1-methyl-1H-thieno[3,4-g]indazole-6-carboxamide], the ChM-I expression-enhancing activity came to 106.

Source of the values: US20030158245A1, “Fused heterocyclic derivatives, their production and use” (priority 2000, published 2003).
